Target: T1, Gq coupled P2u purinergic receptor (THP-1) (Homo sapiens, UniProt P41231)
T1 construct: human monocytic leukemia cell line that carried the Gq coupled P2u purinergic receptor (THP-1); endogenous in cells; host or cells: THP-1 (human monocytic leukemia cell line)
Experiment: model calcium flux assay in THP-1 cells in a microfluidic device
Type: cell-based
Details: THP-1 cells preloaded with Fluo-3 or Fluo-4; UTP 100, 300, 1000 and 3000 nM; detection 15 seconds after exposure
Description: The device shown in FIG. 1A was used to test the dose response of a human monocytic leukemia cell line that carried the Gq coupled P2u purinergic receptor (THP-1), as a model calcium flux assay. Briefly, a phospholipase C/IP3/calcium signal transduction pathway is activated when the receptor binds to its ligand UTP. When the cells are preloaded with a calcium sensitive indicator, i.e., Fluo-3 or Fluo-4 (available from Molecular Probes, Eugene, Oreg.). The transient increase in intracellular calcium is then detected as a fluorescent signal.
In the present example, THP-1 cells were preloaded with Fluo-3 or Fluo-4, as well as a nucleic acid stain (Syto-62 from Molecular Probes). The cells were washed and resuspended in Cell Buffer (1.56 ml HBSS, 0.94 ml 33% Ficoll, 5 μl HEPES (1 M stock), 25 μl 100× PBC, 25 μl 10% BSA, and 0.546 ml OPTI-Prep (65% stock)) and added to reservoir 106. Different concentrations of UTP in Cell Buffer (100, 300, 1000 and 3000 nM, respectively) were then added to reagent reservoirs 110-116. […]
In order to monitor the stepwise increase of each UTP reagent solution, an additional marker solution, BODIPY-arginine, was added to the reagent reservoirs 110-116. […] Briefly, the slope of calcium signal (response) vs. Syto 62 signal (cell number) was calculated for each UTP concentration. […]

T1 sequence (P41231 whole entry): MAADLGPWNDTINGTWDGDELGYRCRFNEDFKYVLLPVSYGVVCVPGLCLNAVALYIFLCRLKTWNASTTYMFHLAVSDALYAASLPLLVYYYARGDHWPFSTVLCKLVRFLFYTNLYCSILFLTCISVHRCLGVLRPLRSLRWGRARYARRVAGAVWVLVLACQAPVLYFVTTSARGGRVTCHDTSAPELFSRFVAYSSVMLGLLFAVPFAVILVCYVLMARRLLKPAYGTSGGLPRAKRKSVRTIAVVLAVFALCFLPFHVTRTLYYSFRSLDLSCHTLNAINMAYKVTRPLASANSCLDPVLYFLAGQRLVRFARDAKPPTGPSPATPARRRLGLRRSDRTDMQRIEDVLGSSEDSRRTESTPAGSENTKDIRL

- calcium signal (fluorescent peaks from each cell) with stepwise addition of UTP: increase discernibly in size
SMILES: O=c1ccn([C@@H]2O[C@H](COP(=O)(O)OP(=O)(O)OP(=O)(O)O)[C@@H](O)[C@H]2O)c(=O)[nH]1 [UTP]

Source: patent US7276330B2, “Devices, systems and methods for time domain multiplexing of reagents” (Caliper Technologies Corp., priority 1999, dated 2007)
